Test results taken from US9199963B2, “Heterocyclic compound” (Takeda Pharmaceutical Company Limited, priority 2013, dated 2015).

What was measured:
[1] = molecular target: T1, human MCH receptor 1 (MCHR1) (Homo sapiens, UniProt Q99705); test: Human MCH receptor 1 (MCHR1) competitive inhibitory activity using binding assay; conditions: test compound 0.1 μM; [125I]-MCH (4-19); human MCHR1-expressing CHO cellular membrane fraction; read-out: Binding inhibition rate % (0.1 μM)
T1 construct: expressed in transfected cells; host or cells: CHO cell clone 57 (described in WO01/82925); membrane fraction
T1 sequence (Q99705 whole entry): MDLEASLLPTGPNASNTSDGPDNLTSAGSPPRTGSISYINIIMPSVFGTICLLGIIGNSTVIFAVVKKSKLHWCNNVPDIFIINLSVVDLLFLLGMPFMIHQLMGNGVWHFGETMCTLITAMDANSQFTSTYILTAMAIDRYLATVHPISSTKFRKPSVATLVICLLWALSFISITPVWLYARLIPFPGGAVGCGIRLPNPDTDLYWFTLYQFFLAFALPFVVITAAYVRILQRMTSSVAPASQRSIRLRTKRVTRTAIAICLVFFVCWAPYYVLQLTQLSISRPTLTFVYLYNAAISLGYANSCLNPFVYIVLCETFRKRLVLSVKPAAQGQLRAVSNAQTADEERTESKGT
Method: Determination of Human MCH Receptor 1 (MCHR1) Competitive Inhibitory Activity of Test Compound Using Binding Assay
1. Preparation of Membrane Fraction
In phosphate buffered saline (pH 7.4) supplemented with 5 mM EDTA (ethylenediaminetetraacetic acid) were respectively suspended human MCHR1-expressing CHO cells (1×10^8 cells) and centrifuged. Homogenate buffer (10 mL, 10 mM NaHCO3, 5 mM EDTA, pH 7.5, 0.5 mM PMSF (phenylmethylsulfonyl fluoride), 20 mg/L leupeptin, 4 mg/L E-64, 1 mg/L pepstatin A) was added to the pellets of the cells and, using Polytron Homogenizer, the mixture was homogenated. The supernatant obtained after centrifugation at 400×g for 10 min was further centrifuged at 100,000×g for 1 hr to give precipitate of the membrane fraction. The precipitate was suspended in 2 mL of assay buffer [20 mM Tris-HCl (pH 7.5), 5 mM EDTA, 0.5 mM PMSF, 20 mg/L leupeptin, 4 mg/L E-64, 1 mg/L pepstatin A]. The membrane fractions were suspended in assay buffer to a protein concentration of 2 mg/mL, and after dispensing, preserved at −80° C. and used upon thawing each time when in use.
The MCHR1 ligand binding inhibitory activity of the test compound was determined as follows.
The mixture was reacted with stirring at room temperature for 1 hr, and the plate was set on FilterMate Harvester (PerkinElmer). […] The glass filter plate was dried, MicroScint 0 (PerkinElmer) was added at 25 μL/well, and the resulting radioactivity was measured by TopCount liquid scintillation counter (PerkinElmer). The binding inhibition rate of the test compound was calculated by the following formula. Binding inhibition(%)=100−(radioactivity upon addition of test compound and hot MCH−radioactivity upon addition of cold MCH and hot MCH solution)/(radioactivity upon addition of DMSO solution and hot MCH−radioactivity upon addition of cold MCH and hot MCH solution)×100

human MCHR1 = molecular target: T2, human MCHR1 (Homo sapiens, UniProt Q99705); test: MCH receptor 1 antagonistic activity using Ca2+ mobilization assay; type: cell-based; conditions: test compound 0.1 μM; ligand MCH (4-19) 2 nM; human MCHR1-expressing CHO cells (clone #4); read-out: Inhibition rate % (0.1 μM)
T2 construct: expressed in transfected cells; host or cells: CHO dhfr- cells, clone #4
T2 sequence (Q99705 whole entry): as above
Method: Measurement of MCH Receptor 1 Antagonistic Activity of Test Compound Using Ca^2+ Mobilization Assay
Using an expression vector plasmid introduced with human MCHR1 gene for expression in animal cells, human MCHR1 gene was introduced into CHO cells (CHO dhfr^−) by Lipofectamine LTX (Invitrogen). The cells were cultured in selection MEMα medium [445 mL of MEMα medium without nucleic acid and added with 5 mL of Penicillin-Streptomycin (Invitrogen) and 50 mL of dialyzed fetal bovine serum]. Colony 24 clones grown in the selection medium, which were human MCHR1 gene-expressing CHO cell candidates, were selected. […] An integrated dispensing function fluorometer (CellLux, PerkinElmer) was used for Ca^2+ mobilization assay. […] The medium was removed, and the cells were washed with phosphate buffered saline (PBS). A Ca^2+ indicator dye reagent (DOJINDO LABORATORIES, Ca screening no-wash kit Fluo4) was added at 100 μL/well, and the dye was allowed to penetrate into the cells for 30 min in an incubator at 5% CO2, 37° C. The plate was set on a plate reader. First, a test compound solution diluted with an assay buffer [10 mM HEPES (pH 7.4), 1× assay buffer containing 0.1% BSA (DOJINDO LABORATORIES, attached to Ca screening no-wash kit Fluo4)] or DMSO solution was added at 50 μL/well, and then ligand MCH (4-19) peptide (final concentration 2 nM) diluted with assay buffer or DMSO was added at 50 μL/well, during which changes in intracellular fluorescence were measured at 2 second intervals.

inhibition at 0.1 µM [1]	inhibition at 0.1 µM (human MCHR1)	SMILES
68%	55%	Cc1c2cc(-n3ccc(OCc4ccc(Cl)s4)cc3=O)ccc2nn1C1CC1 [Example 8, 4-[(5-chlorothiophen-2-yl)methoxy]-1-(2-cyclopropyl-3-methyl-2H-indazol-5-yl)pyridin-2(1H)-one]
39%	51%	Cc1c2cc(-n3ccc(OCc4ccc(C(F)(F)F)s4)cc3=O)ccc2nn1C [Example 10, 1-(2,3-dimethyl-2H-indazol-5-yl)-4-{[5-(trifluoromethyl)thiophen-2-yl]methoxy}pyridin-2(1H)-one]
42%	38%	Cc1c2cc(-n3ccc(OCc4cccc(Cl)c4)cc3=O)ccc2nn1C [Example 12, 4-[(3-chlorobenzyl)oxy]-1-(2,3-dimethyl-2H-indazol-5-yl)pyridin-2(1H)-one]
57%	77%	Cc1c2cc(-n3ccc(OCc4ccc(Br)cn4)cc3=O)ccc2nn1C [Example 23, 4-[(5-bromopyridin-2-yl)methoxy]-1-(2,3-dimethyl-2H-indazol-5-yl)pyridin-2(1H)-one]
60%	92%	Cc1c2cc(-n3ccc(OCc4ccc(Br)s4)cc3=O)ccc2nn1C [Example 27, 4-[(5-bromothiophen-2-yl)methoxy]-1-(2,3-dimethyl-2H-indazol-5-yl)pyridin-2(1H)-one]
37%	83%	CCn1nc2ccc(-n3ccc(OCc4nc(C(F)(F)F)cs4)cc3=O)cc2c1C [Example 36, 1-(2-ethyl-3-methyl-2H-indazol-5-yl)-4-{[4-(trifluoromethyl)-1,3-thiazol-2-yl]methoxy}pyridin-2(1H)-one]
45%	78%	Cc1c2cc(-n3ccc(OCc4nc(C(F)(F)F)cs4)cc3=O)ccc2nn1C [Example 38, 1-(2,3-dimethyl-2H-indazol-5-yl)-4-{[4-(trifluoromethyl)-1,3-thiazol-2-yl]methoxy}pyridin-2(1H)-one]
33%	71%	Cc1c2cc(-n3ccc(OCc4csc(C(F)(F)F)n4)cc3=O)ccc2nn1C [Example 39, 1-(2,3-dimethyl-2H-indazol-5-yl)-4-{[2-(trifluoromethyl)-1,3-thiazol-4-yl]methoxy}pyridin-2(1H)-one]
55%	70%	Cc1c2cc(-n3ccc(OCc4cc(C(F)(F)F)cs4)cc3=O)ccc2nn1C [Example 41, 1-(2,3-dimethyl-2H-indazol-5-yl)-4-{[4-(trifluoromethyl)thiophen-2-yl]methoxy}pyridin-2(1H)-one]
46%	65%	Cc1c2cc(-n3ccc(OCc4ccc(F)cc4)cc3=O)ccc2nn1C [Example 42, 1-(2,3-dimethyl-2H-indazol-5-yl)-4-[(4-fluorobenzyl)oxy]pyridin-2(1H)-one]
71%	72%	Cc1c2cc(-n3ccc(OCc4cc(C(F)(F)F)cs4)cc3=O)ccc2nn1C1CC1 [Example 43, 1-(2-cyclopropyl-3-methyl-2H-indazol-5-yl)-4-{[4-(trifluoromethyl)thiophen-2-yl]methoxy}pyridin-2(1H)-one]
49%	43%	Cc1c2cc(-n3ccc(OCc4ccc(C(F)(F)F)s4)cc3=O)ccc2nn1C1CC1 [Example 45, 1-(2-cyclopropyl-3-methyl-2H-indazol-5-yl)-4-{[5-(trifluoromethyl)thiophen-2-yl]methoxy}pyridin-2(1H)-one]

The remaining lines, values behind:

SMILES	inhibition at 0.1 µM [1]	inhibition at 0.1 µM (human MCHR1)
CCn1nc2ccc(-n3ccc(OCc4ccc(Cl)cc4)cc3=O)cc2c1C [Example 2, 4-[(4-chlorobenzyl)oxy]-1-(2-ethyl-3-methyl-2H-indazol-5-yl)pyridin-2(1H)-one]	43%	73%
CCCn1nc2ccc(-n3ccc(OCc4ccc(Cl)cc4)cc3=O)cc2c1C [Example 3, 4-[(4-chlorobenzyl)oxy]-1-(3-methyl-2-propyl-2H-indazol-5-yl)pyridin-2(1H)-one]	37%	–
Cc1c2cc(-n3ccc(OCc4ccc(Cl)cc4)cc3=O)ccc2nn1C1CC1 [Example 5, 4-[(4-chlorobenzyl)oxy]-1-(2-cyclopropyl-3-methyl-2H-indazol-5-yl)pyridin-2(1H)-one]	78%	86%
Cc1c2cc(-n3ccc(OCc4ccccc4)cc3=O)ccc2nn1C1CC1 [Example 7, 4-(benzyloxy)-1-(2-cyclopropyl-3-methyl-2H-indazol-5-yl)pyridin-2(1H)-one]	44%	66%
Cc1c2cc(-n3ccc(OCc4ccccc4)cc3=O)ccc2nn1C [Example 9, 4-(benzyloxy)-1-(2,3-dimethyl-2H-indazol-5-yl)pyridin-2(1H)-one]	36%	–
Cc1c2cc(-n3ccc(OCc4cc5ccccc5o4)cc3=O)ccc2nn1C [Example 16, 4-(1-benzofuran-2-ylmethoxy)-1-(2,3-dimethyl-2H-indazol-5-yl)pyridin-2(1H)-one]	47%	57%
Cc1c2cc(-n3ccc(OCc4ccc(Cl)cn4)cc3=O)ccc2nn1C1CC1 [Example 18, 4-[(5-chloropyridin-2-yl)methoxy]-1-(2-cyclopropyl-3-methyl-2H-indazol-5-yl)pyridin-2(1H)-one]	45%	63%
Cc1c2cc(-n3ccc(OCc4ccc(Br)cn4)cc3=O)ccc2nn1C1CC1 [Example 28, 4-[(5-bromopyridin-2-yl)methoxy]-1-(2-cyclopropyl-3-methyl-2H-indazol-5-yl)pyridin-2(1H)-one]	68%	93%
Cc1c2cc(-n3ccc(OCc4nc(Br)cs4)cc3=O)ccc2nn1C [Example 30, 4-[(4-bromo-1,3-thiazol-2-yl)methoxy]-1-(2,3-dimethyl-2H-indazol-5-yl)pyridin-2(1H)-one]	34%	89%
Cc1c2c(F)c(-n3ccc(OCc4ccc(Cl)cc4)cc3=O)ccc2nn1C [Example 32, 4-[(4-chlorobenzyl)oxy]-1-(4-fluoro-2,3-dimethyl-2H-indazol-5-yl)pyridin-2(1H)-one]	54%	–
Cc1c2cc(-n3ccc(OCc4nc(C(F)(F)F)cs4)cc3=O)ccc2nn1C1CC1 [Example 33, 1-(2-cyclopropyl-3-methyl-2H-indazol-5-yl)-4-{[4-(trifluoromethyl)-1,3-thiazol-2-yl]methoxy}pyridin-2(1H)-one]	76%	96%
